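Values below derive from 48-hour exposures of cells grown in 96-well plates, with endpoints linearly interpolated between the two concentrations bracketing the appropriate inhibition level. Abbreviation: GI50, concentration required for 50% inhibition of growth. TGI is the concentration that stops growth completely.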
Key:
Assay in all cases: inhibition of tumour cell growth, NCI panel, 48 h
[1] = test system: HCT-15 colon
[2] = test system: HT29 colon
[3] = test system: K-562 leukemia
[4] = test system: KM12 colon
[5] = test system: RXF 393 renal
[6] = test system: SF-268 CNS
[7] = test system: SN12C renal
[8] = test system: SNB-19 CNS
[9] = test system: U251 CNS
[10] = test system: HOP-62 NSCLC

CN1CCN(Cn2nc(-c3cc(F)c(Cl)cc3Cl)oc2=S)CC1
GI50 [1]: 39.7 µM | TGI [1]: > 100 µM | GI50 [2]: 24.5 µM | TGI [2]: 54.7 µM | GI50 [3]: 41.4 µM | TGI [3]: > 100 µM | GI50 [4]: 42.7 µM | TGI [4]: > 100 µM | GI50 [5]: 32.5 µM | TGI [5]: 93.8 µM | GI50 [6]: 34.2 µM | TGI [6]: > 100 µM | GI50 [7]: 28.3 µM | TGI [7]: > 100 µM | GI50 [8]: 35.2 µM | TGI [8]: > 100 µM | GI50 [9]: 35.1 µM | TGI [9]: > 100 µM

COc1cccc2c1C(=O)c1c(O)c3c(c(O)c1C2=O)CC(O)(C(C)=O)CC3O (configuration not stated)
TGI [1]: 39.8 µM | TGI [10]: 11.3 µM | TGI [2]: 36.4 µM | TGI [3]: 39.3 µM | TGI [4]: 38.5 µM | TGI [5]: 18.5 µM | TGI [6]: 31.9 µM | TGI [7]: 29.4 µM | TGI [8]: 32.8 µM | TGI [9]: 14.9 µM

CN1C(=O)[C@@H]2[C@@H]3c4ccccc4N[C@@H]3c3[nH]c4ccccc4c3[C@@H]2C1=O
TGI [1]: 50.1 µM | TGI [10]: 43.5 µM | TGI [2]: > 100 µM | TGI [3]: 74.7 µM | TGI [5]: 64.4 µM | TGI [6]: 92.6 µM | TGI [7]: > 100 µM | TGI [8]: > 100 µM | TGI [9]: 66.3 µM

O=c1[nH]c(-c2ccc(Cl)cc2)cc2ccsc12
TGI [1]: > 100 µM | TGI [10]: > 100 µM | TGI [2]: > 100 µM | TGI [3]: > 100 µM | TGI [4]: > 100 µM | TGI [5]: > 100 µM | TGI [6]: > 100 µM | TGI [7]: > 100 µM | TGI [8]: 7.71 µM | TGI [9]: > 100 µM
